Read-outs that look alike come from different tables or passages of the source.
Key:
CYP2D6 = CYP2D6 (Homo sapiens, UniProt P10635); experiment: In vitro inhibition of human cytochrome P450 CYP2D6 (fluorometric, 3-[2-(N,N diethyl-N-methylamino)ethyl]-7-methoxy-4-methylcoumarin substrate); type: in vitro ADME; conditions: for IC50: 40 minutes at 37° C.; for times the amount of compound needed to inhibit CYP2D6 than non-isotopically enriched zamifenacin: ratio versus non-isotopically enriched zamifenacin (IC50 0.33 μM)
Procedure: (§1) In Vitro Inhibition of Human Cytochrome P450 Enzymes
(§2) Solution A: NADPH-Regenerating System
The plate was incubated for 40 minutes at 37° C. in the dark.

CYP2C19 = CYP2C19 (Homo sapiens, UniProt P33261); experiment: In vitro inhibition of human cytochrome P450 CYP2C19 (fluorometric, 3-cyano-7-ethoxycoumarin substrate)
Procedure: as §1, §2
To a glass tube on ice were added sequentially: Water (8 mL) in NADP+ (20 mg), glucose-6-phosphate (20 mg), magnesium chloride hexahydrate (13.3 mg) and glucose-6-phosphate dehydrogenase (60 units).
Solution A was transferred to a 96-well black plate (80 microliter per well), followed by various concentrations of a solution of paroxetine in 20% acetonitrile-water (20 microliter per well). The reaction was initiated by adding 100 microliter of solution B to each well of the 96-well plate. The plate was incubated for 30 minutes at 37° C. in the dark. The reaction was stopped by adding 75 microliter of stop buffer (4:1 acetonitrile-0.5 M Tris base) to each well, and the end point was measured in a fluorometer plate reader at λex=409 nm and λem=460 nm.

[1] = read-out: IC50 for inhibition of CYP2D6

Sequence of CYP2C19 (P33261 whole entry): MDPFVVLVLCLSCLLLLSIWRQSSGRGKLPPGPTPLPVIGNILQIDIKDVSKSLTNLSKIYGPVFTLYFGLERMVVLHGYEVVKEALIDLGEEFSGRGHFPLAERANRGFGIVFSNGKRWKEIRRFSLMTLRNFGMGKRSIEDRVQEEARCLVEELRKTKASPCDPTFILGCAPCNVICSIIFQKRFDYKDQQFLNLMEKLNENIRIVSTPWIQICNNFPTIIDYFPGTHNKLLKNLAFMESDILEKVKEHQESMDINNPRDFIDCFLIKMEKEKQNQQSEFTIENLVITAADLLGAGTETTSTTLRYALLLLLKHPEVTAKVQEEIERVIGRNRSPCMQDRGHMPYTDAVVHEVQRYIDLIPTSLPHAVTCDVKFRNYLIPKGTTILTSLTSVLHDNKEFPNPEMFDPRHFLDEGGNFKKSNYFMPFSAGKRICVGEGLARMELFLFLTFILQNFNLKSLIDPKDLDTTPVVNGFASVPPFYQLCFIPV
Sequence of CYP2D6 (P10635 whole entry): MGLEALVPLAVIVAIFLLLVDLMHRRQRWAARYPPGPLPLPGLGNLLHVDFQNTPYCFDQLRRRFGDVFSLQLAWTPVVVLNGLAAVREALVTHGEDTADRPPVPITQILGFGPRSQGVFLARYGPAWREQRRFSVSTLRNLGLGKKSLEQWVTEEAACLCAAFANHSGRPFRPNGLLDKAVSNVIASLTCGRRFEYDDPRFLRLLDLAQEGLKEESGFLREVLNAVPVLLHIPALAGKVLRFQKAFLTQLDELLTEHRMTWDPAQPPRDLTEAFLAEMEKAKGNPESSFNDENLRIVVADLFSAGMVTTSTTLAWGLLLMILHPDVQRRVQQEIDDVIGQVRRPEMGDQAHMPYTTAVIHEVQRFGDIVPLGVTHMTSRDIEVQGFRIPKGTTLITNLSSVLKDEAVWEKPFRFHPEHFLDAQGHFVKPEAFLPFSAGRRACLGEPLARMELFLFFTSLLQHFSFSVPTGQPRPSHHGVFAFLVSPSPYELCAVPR

SMILES	IC50 (CYP2D6; [1])	IC50 (CYP2C19)	IC50 (CYP2D6; positive control, read-out: IC50 for inhibition of CYP2D6 (positive control))	times the amount of compound needed to inhibit CYP2D6 than non-isotopically enriched zamifenacin (CYP2D6)
c1ccc(C(OC2CCCN(CCc3ccc4c(c3)OCO4)C2)c2ccccc2)cc1 (stereo not shown) [zamifenacin, 3-benzhydryloxy-1-(2-benzo[1,3]dioxol-5-yl-ethyl)-piperidine, reference compound]	330 nM	3.6 µM		
[2H]C([2H])(c1ccc2c(c1)OCO2)C([2H])([2H])N1CCCC(OC(c2ccccc2)c2ccccc2)C1 (stereo not shown) [Example 2, d4-3-Benzhydryloxy-1-(2-benzo[1,3]dioxol-5-yl-ethyl)-piperidine]		4 µM		
Cc1nc2c([nH]1)c(=O)n(C)c(=O)n2Cc1ccco1 [Furafylline, reference compound]			14.5 nM	
[2H]C1([2H])Oc2ccc(CCN3CCCC(OC(c4ccccc4)c4ccccc4)C3)cc2O1 (stereo not shown) [Example 3, d2-3-Benzhydryloxy-1-(2-benzo[1,3]dioxol-5-yl-ethyl)-piperidine]	400 nM	5.1 µM		1.2 times
[2H]C1([2H])Oc2ccc(C([2H])([2H])C([2H])([2H])N3CCCC(OC(c4ccccc4)c4ccccc4)C3)cc2O1 (stereo not shown) [Example 4, d6-3-Benzhydryloxy-1-(2-benzo[1,3]dioxol-5-yl-ethyl)-piperidine]	420 nM	5.3 µM		1.3 times

Source: patent US20090005309A1, “SUBSTITUTED PIPERIDINES” (AUSPEX PHARMACEUTICALS, INC., priority 2007, published 2009)
